Experimental data published in paper PMC3145672, “X-Ray Structure Reveals a New Class and Provides Insight into Evolution of Alkaline Phosphatases” (PLoS ONE, 2011).

Molecular target: T1, SPAP (Sphingomonas sp., UniProt A1YYW7)
T1 construct: gene phoK; recombinant in E. coli, Ni-NTA purified; precursor 559 residues, predicted signal peptide 1-19; residues 31-556 visible in crystal; active monomer, 58 kD by SEC
T1 sequence (A1YYW7 20-559): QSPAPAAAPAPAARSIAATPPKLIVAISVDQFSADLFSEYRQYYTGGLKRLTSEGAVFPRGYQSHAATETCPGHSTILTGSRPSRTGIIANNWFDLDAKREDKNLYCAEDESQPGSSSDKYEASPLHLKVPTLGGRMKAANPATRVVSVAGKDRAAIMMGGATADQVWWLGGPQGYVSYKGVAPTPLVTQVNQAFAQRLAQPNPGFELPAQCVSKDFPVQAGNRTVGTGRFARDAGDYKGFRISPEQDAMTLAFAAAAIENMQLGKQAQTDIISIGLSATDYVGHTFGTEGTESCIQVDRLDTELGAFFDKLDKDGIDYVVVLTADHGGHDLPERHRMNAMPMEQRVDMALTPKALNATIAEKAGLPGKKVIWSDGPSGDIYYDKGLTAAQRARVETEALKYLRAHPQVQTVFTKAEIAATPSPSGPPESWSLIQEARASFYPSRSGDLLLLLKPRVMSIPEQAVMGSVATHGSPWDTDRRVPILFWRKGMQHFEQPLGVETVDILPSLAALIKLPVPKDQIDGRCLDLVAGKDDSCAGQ
Test: release of pNP at […] nm
Type: biochemical
Conditions: pH 8.5, room temperature; size exclusion chromatography fraction

Compound: O=[N+]([O-])c1ccc(OP(=O)(O)O)cc1 [pNPP]
- release of pNP at 405 nm: Catalytic activity of eluted SPAP fraction was checked, at room temperature
